How the values were obtained:
TLK2 = target: T1, TLK2 (Homo sapiens, UniProt Q86UE8); assay: ATP acyl phosphate chemical proteomics in lung cancer cell proteomes; format: binding; conditions: 100 μM; A549 and H82 proteomes
T1 construct: measure selectivity of compounds against native kinases detected in lung cancer proteomes; endogenous in cells; host or cells: A549 and H82 lung cancer cell proteomes
Protocol: (§1) LC-MS analysis of SILAC samples using ATP acyl phosphates. Quantitative chemoproteomics was performed as previously described (Franks et al., 2017; McCloud et al., 2018).
(§2) Computational Methods. Data for A549 and H82 cell lines were searched with IP2 and manually validated using the methods previously described (Franks et al., 2017). Data for Desthiobiotin-tagged ATP acyl-phosphate probes and ATP competitive peptides were compared and clustered. Ritanserin and ketanserin inhibition profiles were compared using SILAC ratios and normalized to DMSO.
(§3) Based on previous chemical proteomics (Franks, 2017), it was hypothesized that ritanserin is functioning as a kinase inhibitor to mediate cytotoxicity in the lung cancer cell models. […] For these studies, NSCLC and SCLC cells were cultured in isotopically light and heavy amino acids to enable quantitative chemical proteomics (Chang. 2015) by stable isotope labeling with amino acids in cell culture (SILAC, FIG. 17A). […] After probe labeling, light and heavy proteomes were combined, digested with trypsin protease, and desthiobiotin-modified peptides enriched by avidin affinity chromatography and analyzed by LC-MS/MS to identify and quantify isotopically tagged active-site peptides from native kinases as previously described(Franks, 2017) (FIG. 17A).

FER = target: T2, FER (Homo sapiens, UniProt P16591); assay: as above; format: binding; conditions: 100 μM; A549 and H82 proteomes
T2 construct: measure selectivity of compounds against native kinases detected in lung cancer proteomes; endogenous in cells; host or cells: A549 and H82 lung cancer cell proteomes
Protocol: as §1, §2, §3

[1] = system: Bone Marrow Derived Macrophages (BMDMs), noncancerous primary cells; assay: WST-1 Cell Proliferation Assay; format: cell-based; conditions: ritanserin highest concentration tested 50 μM; staurosporine 1 μM
[2] = humans, cited from earlier work

T1 sequence (Q86UE8 whole entry): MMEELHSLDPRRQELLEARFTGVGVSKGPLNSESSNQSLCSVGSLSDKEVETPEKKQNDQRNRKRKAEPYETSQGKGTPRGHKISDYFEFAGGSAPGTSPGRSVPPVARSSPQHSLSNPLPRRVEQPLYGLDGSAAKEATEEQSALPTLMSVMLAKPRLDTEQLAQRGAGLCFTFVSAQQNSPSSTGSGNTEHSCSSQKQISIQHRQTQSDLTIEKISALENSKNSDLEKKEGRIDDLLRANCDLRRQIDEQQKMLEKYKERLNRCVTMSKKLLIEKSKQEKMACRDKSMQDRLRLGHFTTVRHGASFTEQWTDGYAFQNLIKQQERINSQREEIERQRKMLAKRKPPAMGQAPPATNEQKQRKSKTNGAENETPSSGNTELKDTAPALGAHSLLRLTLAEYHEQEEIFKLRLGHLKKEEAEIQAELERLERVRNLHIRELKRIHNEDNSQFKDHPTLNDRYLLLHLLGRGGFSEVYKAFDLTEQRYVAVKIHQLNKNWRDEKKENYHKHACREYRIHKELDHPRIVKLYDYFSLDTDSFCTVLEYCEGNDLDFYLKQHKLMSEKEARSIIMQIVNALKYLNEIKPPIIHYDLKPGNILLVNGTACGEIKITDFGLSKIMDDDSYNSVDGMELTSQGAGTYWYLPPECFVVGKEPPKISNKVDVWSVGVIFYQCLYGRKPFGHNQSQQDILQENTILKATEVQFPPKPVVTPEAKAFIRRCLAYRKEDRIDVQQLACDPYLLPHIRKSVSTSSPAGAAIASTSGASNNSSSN
T2 sequence (P16591 whole entry): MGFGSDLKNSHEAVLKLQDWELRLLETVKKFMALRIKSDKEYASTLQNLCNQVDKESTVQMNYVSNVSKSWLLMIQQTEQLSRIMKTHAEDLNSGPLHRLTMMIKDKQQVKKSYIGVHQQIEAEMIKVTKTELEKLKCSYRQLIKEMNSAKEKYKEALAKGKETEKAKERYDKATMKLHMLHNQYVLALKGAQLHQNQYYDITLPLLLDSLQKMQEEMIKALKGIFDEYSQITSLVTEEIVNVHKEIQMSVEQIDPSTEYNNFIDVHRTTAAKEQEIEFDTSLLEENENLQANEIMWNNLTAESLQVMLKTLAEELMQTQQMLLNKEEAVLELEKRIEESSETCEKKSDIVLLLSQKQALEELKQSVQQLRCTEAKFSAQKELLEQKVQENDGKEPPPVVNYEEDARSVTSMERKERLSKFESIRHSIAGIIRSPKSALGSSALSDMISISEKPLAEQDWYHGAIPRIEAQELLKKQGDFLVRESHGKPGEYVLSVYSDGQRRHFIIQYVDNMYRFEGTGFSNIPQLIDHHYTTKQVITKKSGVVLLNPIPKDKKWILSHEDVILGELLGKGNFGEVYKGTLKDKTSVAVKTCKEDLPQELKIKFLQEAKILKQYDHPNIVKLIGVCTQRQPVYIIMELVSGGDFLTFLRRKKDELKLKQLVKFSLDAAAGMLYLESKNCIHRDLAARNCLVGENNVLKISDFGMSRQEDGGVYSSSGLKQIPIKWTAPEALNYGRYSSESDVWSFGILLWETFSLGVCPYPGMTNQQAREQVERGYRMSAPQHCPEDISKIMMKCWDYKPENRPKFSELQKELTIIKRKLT

Cc1nc2sccn2c(=O)c1CCN1CCC(=C(c2ccc(F)cc2)c2ccc(F)cc2)CC1 [Ritanserin]
kinase target by SILAC ratio criterion (TLK2): most potent targets | kinase target by SILAC ratio criterion (FER): most potent targets | cell killing of noncancerous primary cells (WST-1), words [1]: negligible cell killing | adverse side effects [2]: lack of adverse side effects | half-life ([2]; oral): ~40 h

Source: patent publication US12643867B2, “Compositions and uses thereof” (University of Virginia Patent Foundation, priority 2017, dated 2026)
